pIC50: −log10 of the molar value.
Tests used:
[1] = system: Klebsiella pneumoniae; assay: microbe, parasite or virus in culture; format: functional; conditions: D 11750/08, 48 h
Description: Antibacterial activity against Klebsiella pneumoniae D 11750/08 after 48 hrs by microdilution broth method

[2] = system: Trichophyton mentagrophytes; assay: microbe, parasite or virus in culture; format: functional; conditions: Trichophyton mentagrophytes, 445, 72 h
Description: Antifungal activity against Trichophyton mentagrophytes 445 after 72 hrs by modified standard CSLI M27-A2 method

[3] = system: Staphylococcus aureus; assay: Bactericidal activity against Staphylococcus aureus CCM 4516/08 after 48 hrs by microdilution broth method; format: functional; conditions: CCM 4516/08, 48 h, read-out: MBC>99.9
[4] = system: Enterococcus sp.; assay: Bactericidal activity against Enterococcus sp. J 14365/08 after 48 hrs by microdilution broth method; format: functional; conditions: J 14365/08, 48 h, read-out: MBC>99.9
[5] = system: Klebsiella pneumoniae; assay: microbe, parasite or virus in culture; format: functional; conditions: J 14368/08, 48 h
Description: Antibacterial activity against Klebsiella pneumoniae J 14368/08 after 48 hrs by microdilution broth method

[6] = system: Trichosporon asahii; assay: Fungicidal activity against Trichosporon asahii 1188 after 48 hrs by modified standard CSLI M27-A2 method; format: functional; conditions: Trichosporon asahii, 1188, 48 h
[7] = system: Lichtheimia corymbifera; assay: microbe, parasite or virus in culture; format: functional; conditions: Lichtheimia corymbifera, 272, 48 h
Description: Antifungal activity against Absidia corymbifera 272 after 48 hrs by modified standard CSLI M27-A2 method

[8] = system: Lichtheimia corymbifera; assay: microbe, parasite or virus in culture; format: functional; conditions: Lichtheimia corymbifera, 272, 24 h
Description: Antifungal activity against Absidia corymbifera 272 after 24 hrs by modified standard CSLI M27-A2 method

[9] = system: Staphylococcus epidermidis; assay: microbe, parasite or virus in culture; format: functional; conditions: H 6966/08, 48 h
Description: Antibacterial activity against Staphylococcus epidermidis H 6966/08 after 48 hrs by microdilution broth method

[10] = system: Pseudomonas aeruginosa; assay: microbe, parasite or virus in culture; format: functional; conditions: CCM 1961, 120 h
Description: Antibacterial activity against Pseudomonas aeruginosa CCM 1961 after 120 hrs by microdilution broth method

[11] = system: Pichia kudriavzevii; assay: Antifungal activity against Candida krusei E28 after 24 hrs by modified standard CSLI M27-A2 method; format: functional; conditions: E28, 24 h
[12] = system: Pichia kudriavzevii; assay: Fungicidal activity against Candida krusei E28 after 48 hrs by modified standard CSLI M27-A2 method; format: functional; conditions: E28, 48 h
[13] = system: Staphylococcus epidermidis; assay: Bactericidal activity against Staphylococcus epidermidis H 6966/08 after 48 hrs by microdilution broth method; format: functional; conditions: H 6966/08, 48 h, read-out: MBC>99.9
[14] = system: Staphylococcus aureus; assay: microbe, parasite or virus in culture; format: functional; conditions: CCM 4516/08, 24 h
Description: Antibacterial activity against Staphylococcus aureus CCM 4516/08 after 24 hrs by microdilution broth method

[15] = system: Candida albicans; assay: microbe, parasite or virus in culture; format: functional; conditions: ATCC 44859, 24 h
Description: Antifungal activity against Candida albicans ATCC 44859 after 24 hrs by modified standard CSLI M27-A2 method

[16] = system: Escherichia coli; assay: microbe, parasite or virus in culture; format: functional; conditions: CCM 4517, 48 h
Description: Antibacterial activity against Escherichia coli CCM 4517 after 48 hrs by microdilution broth method

[17] = system: Trichosporon asahii; assay: microbe, parasite or virus in culture; format: functional; conditions: Trichosporon asahii, 1188, 48 h
Description: Antifungal activity against Trichosporon asahii 1188 after 48 hrs by modified standard CSLI M27-A2 method

[18] = system: Candida tropicalis; assay: Fungicidal activity against Candida tropicalis 156 after 48 hrs by modified standard CSLI M27-A2 method; format: functional; conditions: Candida tropicalis, 156, 48 h
[19] = system: Staphylococcus aureus; assay: microbe, parasite or virus in culture; format: functional; conditions: H 5996/08, 48 h
Description: Antibacterial activity against Staphylococcus aureus H 5996/08 after 48 hrs by microdilution broth method

[20] = system: Pichia kudriavzevii; assay: Antifungal activity against Candida krusei E28 after 48 hrs by modified standard CSLI M27-A2 method; format: functional; conditions: E28, 48 h
[21] = system: Candida tropicalis; assay: microbe, parasite or virus in culture; format: functional; conditions: Candida tropicalis, 156, 48 h
Description: Antifungal activity against Candida tropicalis 156 after 48 hrs by modified standard CSLI M27-A2 method

[22] = system: Aspergillus fumigatus; assay: Fungicidal activity against Aspergillus fumigatus 231 after 48 hrs by modified standard CSLI M27-A2 method; format: functional; conditions: Aspergillus fumigatus, 231, 48 h
[23] = system: Enterococcus sp.; assay: microbe, parasite or virus in culture; format: functional; conditions: J 14365/08, 48 h
Description: Antibacterial activity against Enterococcus sp. J 14365/08 after 48 hrs by microdilution broth method

[24] = system: Staphylococcus aureus; assay: Bactericidal activity against Staphylococcus aureus H 5996/08 after 48 hrs by microdilution broth method; format: functional; conditions: H 5996/08, 48 h, read-out: MBC>99.9
[25] = system: Candida tropicalis; assay: microbe, parasite or virus in culture; format: functional; conditions: Candida tropicalis, 156, 24 h
Description: Antifungal activity against Candida tropicalis 156 after 24 hrs by modified standard CSLI M27-A2 method

[26] = system: Candida albicans; assay: microbe, parasite or virus in culture; format: functional; conditions: ATCC 44859, 48 h
Description: Antifungal activity against Candida albicans ATCC 44859 after 48 hrs by modified standard CSLI M27-A2 method

[27] = system: Escherichia coli; assay: Bactericidal activity against Escherichia coli CCM 4517 after 48 hrs by microdilution broth method; format: functional; conditions: CCM 4517, 48 h, read-out: MBC>99.9
[28] = system: Staphylococcus aureus; assay: microbe, parasite or virus in culture; format: functional; conditions: CCM 4516/08, 48 h
Description: Antibacterial activity against Staphylococcus aureus CCM 4516/08 after 48 hrs by microdilution broth method

[29] = system: Trichophyton mentagrophytes; assay: Fungicidal activity against Trichophyton mentagrophytes 445 after 120 hrs by modified standard CSLI M27-A2 method; format: functional; conditions: Trichophyton mentagrophytes, 445, 120 h
[30] = system: Nakaseomyces glabratus; assay: Fungicidal activity against Candida glabrata 20/I after 48 hrs by modified standard CSLI M27-A2 method; format: functional
[31] = system: Pseudomonas aeruginosa; assay: Bactericidal activity against Pseudomonas aeruginosa CCM 1961 after 120 hrs by microdilution broth method; format: functional; conditions: CCM 1961, 120 h, read-out: MBC>99.9
[32] = system: Staphylococcus epidermidis; assay: microbe, parasite or virus in culture; format: functional; conditions: H 6966/08, 24 h
Description: Antibacterial activity against Staphylococcus epidermidis H 6966/08 after 24 hrs by microdilution broth method

[33] = system: Pseudomonas aeruginosa; assay: microbe, parasite or virus in culture; format: functional; conditions: CCM 1961, 72 h
Description: Antibacterial activity against Pseudomonas aeruginosa CCM 1961 after 72 hrs by microdilution broth method

[34] = system: Klebsiella pneumoniae; assay: microbe, parasite or virus in culture; format: functional; conditions: D 11750/08, 24 h
Description: Antibacterial activity against Klebsiella pneumoniae D 11750/08 after 24 hrs by microdilution broth method

[35] = system: Lichtheimia corymbifera; assay: Fungicidal activity against Absidia corymbifera 272 after 48 hrs by modified standard CSLI M27-A2 method; format: functional; conditions: Lichtheimia corymbifera, 272, 48 h
[36] = system: Escherichia coli; assay: microbe, parasite or virus in culture; format: functional; conditions: CCM 4517, 24 h
Description: Antibacterial activity against Escherichia coli CCM 4517 after 24 hrs by microdilution broth method

[37] = system: Aspergillus fumigatus; assay: microbe, parasite or virus in culture; format: functional; conditions: Aspergillus fumigatus, 231, 24 h
Description: Antifungal activity against Aspergillus fumigatus 231 after 24 hrs by modified standard CSLI M27-A2 method

[38] = Cytotoxicity against CHOK1 cells after 24 hrs by MTT assay; format: ADME, cell-based; conditions: Cricetulus griseus, CHO-K1, 24 h
[39] = system: Klebsiella pneumoniae; assay: microbe, parasite or virus in culture; format: functional; conditions: J 14368/08, 24 h
Description: Antibacterial activity against Klebsiella pneumoniae J 14368/08 after 24 hrs by microdilution broth method

[40] = system: Nakaseomyces glabratus; assay: Antifungal activity against Candida glabrata 20/I after 24 hrs by modified standard CSLI M27-A2 method; format: functional
[41] = system: Trichosporon asahii; assay: microbe, parasite or virus in culture; format: functional; conditions: Trichosporon asahii, 1188, 24 h
Description: Antifungal activity against Trichosporon asahii 1188 after 24 hrs by modified standard CSLI M27-A2 method

[42] = system: Nakaseomyces glabratus; assay: Antifungal activity against Candida glabrata 20/I after 48 hrs by modified standard CSLI M27-A2 method; format: functional
[43] = system: Candida albicans; assay: Fungicidal activity against Candida albicans ATCC 44859 after 48 hrs by modified standard CSLI M27-A2 method; format: functional; conditions: ATCC 44859, 48 h
[44] = system: Klebsiella pneumoniae; assay: Bactericidal activity against Klebsiella pneumoniae J 14368/08 after 48 hrs by microdilution broth method; format: functional; conditions: J 14368/08, 48 h, read-out: MBC>99.9
[45] = system: Trichophyton mentagrophytes; assay: microbe, parasite or virus in culture; format: functional; conditions: Trichophyton mentagrophytes, 445, 120 h
Description: Antifungal activity against Trichophyton mentagrophytes 445 after 120 hrs by modified standard CSLI M27-A2 method

[46] = system: Klebsiella pneumoniae; assay: Bactericidal activity against Klebsiella pneumoniae D 11750/08 after 24 hrs by microdilution broth method; format: functional; conditions: D 11750/08, 24 h, read-out: MBC>99.9
[47] = system: Staphylococcus aureus; assay: microbe, parasite or virus in culture; format: functional; conditions: H 5996/08, 24 h
Description: Antibacterial activity against Staphylococcus aureus H 5996/08 after 24 hrs by microdilution broth method

[48] = system: Enterococcus sp.; assay: microbe, parasite or virus in culture; format: functional; conditions: J 14365/08, 24 h
Description: Antibacterial activity against Enterococcus sp. J 14365/08 after 24 hrs by microdilution broth method

[49] = system: Aspergillus fumigatus; assay: microbe, parasite or virus in culture; format: functional; conditions: Aspergillus fumigatus, 231, 48 h
Description: Antifungal activity against Aspergillus fumigatus 231 after 48 hrs by modified standard CSLI M27-A2 method

## CCCCCCCCCCCC[N+](C)(C)Cc1ccccc1
[1]
  MIC95: 0.49 µM
[2]
  MIC: 0.98 µM
[3]
  MBC: 1.95 µM
[4]
  MBC: 0.98 µM
[5]
  MIC95: 0.98 µM
[6]
  MFC: 1.95 µM
[7]
  MIC: 7.81 µM
[8]
  MIC: 7.81 µM
[9]
  MIC95: 0.49 µM
[10]
  MIC95: 3.91 µM
[11]
  MIC: 0.49 µM
[12]
  MFC: 0.49 µM
[13]
  MBC: 0.49 µM
[14]
  MIC95: 0.49 µM
[15]
  MIC: 0.49 µM
[16]
  MIC95: 1.95 µM
[17]
  MIC: 1.95 µM
[18]
  MFC: 0.98 µM
[19]
  MIC95: 0.49 µM
[20]
  MIC: 0.49 µM
[21]
  MIC: 0.49 µM
[22]
  MFC: 3.91 µM
[23]
  MIC95: 0.98 µM
[24]
  MBC: 0.98 µM
[25]
  MIC: 0.49 µM
[26]
  MIC: 0.49 µM
[27]
  MBC: 1.95 µM
[28]
  MIC95: 1.95 µM
[29]
  MFC: 1.95 µM
[30]
  MFC: 0.49 µM
[31]
  MBC: 7.81 µM
[32]
  MIC95: 0.49 µM
[33]
  MIC95: 3.91 µM
[34]
  MIC95: 0.49 µM
[35]
  MFC: 7.81 µM
[36]
  MIC95: 0.49 µM
[37]
  MIC: 0.98 µM
[38]
  pIC50: 4.54
[39]
  MIC95: 0.98 µM
[40]
  MIC: 0.49 µM
[41]
  MIC: 0.49 µM
[42]
  MIC: 0.49 µM
[43]
  MFC: 0.98 µM
[44]
  MBC: 0.98 µM
[45]
  MIC: 0.98 µM
[46]
  MBC: 0.49 µM
[47]
  MIC95: 0.49 µM
[48]
  MIC95: 0.49 µM
[49]
  MIC: 3.91 µM

## CCCCCCCCCCCCCCCC[N+](C)(C)Cc1ccccc1
[1]
  MIC95: 7.81 µM
[2]
  MIC: 7.81 µM
[3]
  MBC: 3.91 µM
[4]
  MBC: 3.91 µM
[5]
  MIC95: 7.81 µM
[6]
  MFC: 62.5 µM
[7]
  MIC: 7.81 µM
[8]
  MIC: 7.81 µM
[9]
  MIC95: 0.49 µM
[10]
  MIC95: 31.2 µM
[11]
  MIC: 1.95 µM
[12]
  MFC: 1.95 µM
[13]
  MBC: 3.91 µM
[14]
  MIC95: 0.98 µM
[15]
  MIC: 3.91 µM
[16]
  MIC95: 7.81 µM
[17]
  MIC: 7.81 µM
[18]
  MFC: 7.81 µM
[19]
  MIC95: 1.95 µM
[20]
  MIC: 1.95 µM
[21]
  MIC: 7.81 µM
[22]
  MFC: 62.5 µM
[23]
  MIC95: 1.95 µM
[24]
  MBC: 3.91 µM
[25]
  MIC: 3.91 µM
[26]
  MIC: 7.81 µM
[27]
  MBC: 7.81 µM
[28]
  MIC95: 0.98 µM
[29]
  MFC: 62.5 µM
[30]
  MFC: 62.5 µM
[31]
  MBC: 125 µM
[32]
  MIC95: 0.49 µM
[33]
  MIC95: 15.6 µM
[34]
  MIC95: 7.81 µM
[35]
  MFC: 62.5 µM
[36]
  MIC95: 7.81 µM
[37]
  MIC: 7.81 µM
[38]
  pIC50: 4.82
[39]
  MIC95: 7.81 µM
[40]
  MIC: 1.95 µM
[41]
  MIC: 7.81 µM
[42]
  MIC: 3.91 µM
[43]
  MFC: 7.81 µM
[44]
  MBC: 7.81 µM
[45]
  MIC: 7.81 µM
[46]
  MBC: 7.81 µM
[47]
  MIC95: 1.95 µM
[48]
  MIC95: 1.95 µM
[49]
  MIC: 7.81 µM

## CCCCCCCCCCCC[n+]1ccccc1
[1]
  MIC95: 7.81 µM
[2]
  MIC: 1.95 µM
[3]
  MBC: 1.95 µM
[4]
  MBC: 3.91 µM
[5]
  MIC95: 7.81 µM
[6]
  MFC: 15.6 µM
[7]
  MIC: 125 µM
[8]
  MIC: 62.5 µM
[9]
  MIC95: 3.91 µM
[10]
  MIC95: 7.81 µM
[11]
  MIC: 0.49 µM
[12]
  MFC: 0.49 µM
[13]
  MBC: 3.91 µM
[14]
  MIC95: 0.49 µM
[15]
  MIC: 0.98 µM
[16]
  MIC95: 3.91 µM
[17]
  MIC: 15.6 µM
[18]
  MFC: 3.91 µM
[19]
  MIC95: 3.91 µM
[20]
  MIC: 0.49 µM
[21]
  MIC: 1.95 µM
[22]
  MFC: 31.2 µM
[23]
  MIC95: 3.91 µM
[24]
  MBC: 3.91 µM
[25]
  MIC: 0.49 µM
[26]
  MIC: 1.95 µM
[27]
  MBC: 3.91 µM
[28]
  MIC95: 1.95 µM
[29]
  MFC: 3.91 µM
[30]
  MFC: 0.49 µM
[31]
  MBC: 7.81 µM
[32]
  MIC95: 0.98 µM
[33]
  MIC95: 7.81 µM
[34]
  MIC95: 3.91 µM
[35]
  MFC: 250 µM
[36]
  MIC95: 1.95 µM
[37]
  MIC: 3.91 µM
[38]
  pIC50: 4.41
[39]
  MIC95: 7.81 µM
[40]
  MIC: 0.49 µM
[41]
  MIC: 7.81 µM
[42]
  MIC: 0.49 µM
[43]
  MFC: 1.95 µM
[44]
  MBC: 7.81 µM
[45]
  MIC: 3.91 µM
[46]
  MBC: 7.81 µM
[47]
  MIC95: 3.91 µM
[48]
  MIC95: 1.95 µM
[49]
  MIC: 31.2 µM

From ChEMBL document CHEMBL3352489, “6-Hydroxyquinolinium salts differing in the length of alkyl side-chain: synthesis and antimicrobial activity” (Bioorg Med Chem Lett, 2014)
